Measurements: patent publication US20100190846A1, “MICROBICIDAL AGENT AND MICROBICIDAL COMPOSITION” (priority 2006, published 2010)
Converted amounts (≈) assume the structure as drawn.

Experiments:
Assay in all cases: Agar dilution method microbicidal test
Type in all cases: cell-based
Pseudomonas aeruginosa = tested on: Pseudomonas aeruginosa; on Growth on agar plate: key: +: grew; −: did not grow
Description: (§1) As microbicidal test method for trans-p-coumaric acid, 3-hydroxypyridine, p-hydroxybenzaldehyde and vanillin, the agar dilution method was employed.
(§2) In agar dilution method, a solution in which a sample is dissolved is serially diluted several times, and each of the diluted sample solutions is mixed with agar medium to prepare plate agars having various sample concentration. Then bacteria is inoculated onto the plate agars. In cases where the sample has a microbicidal activity, the growth of the bacteria on the plates can be inhibited. The lowest concentration which can inhibit the growth of the bacteria is referred to as Minimum Inhibitory Concentration (MIC), thereby judging the degree of a microbicidal activity of the sample.
(§3) First, 400 mg of sample was dissolved in 1 mL of DMSO to prepare 400 mg/mL sample solution. Then 0.5 mL of this 400 mg/mL sample solution was diluted 2-fold to prepare 200 mg/mL sample solution. In the same manner, sample solutions of 100 mg/mL, 50.0 mg/mL, and 25.0 mg/mL were prepared. In addition, 300 mg/mL sample solution was prepared. Thereafter, 0.2 mL of these sample solutions each was mixed with 19.8 mL of BHI (Brain Heart Infusion Agar, Becton Dickinson, MD) medium, thereby preparing agar plates having the sample concentration of 4.0 mg/mL, 3.0 mg/mL, 2.0 mg/mL, 1.0 mg/mL, 0.5 mg/mL, and 0.25 mg/mL in dishes. […] Sterilized water was used for dissolving catechin, because catechin was insoluble in DMSO.
(§4) As test bacteria, 13 kinds of bacteria, i.e., Streptococcus pneumoniae, Streptococcus pyogenes, Enterococcus faecalis, Staphylococcus aureus, Escherichia coli, Salmonella sp., Yersinia enterocolitica, Vibrio parahaemolyticus, Pseudomonas aeruginosa, Bacillus cereus, Bacillus subtilis MB-32, Bacillus subtilis ATCC6633, and Candida sp., were used. These bacteria each was mixed with 2 mL of sterilized MHB^R liquid medium (Mueller Hinton Broth^R, Becton Dickinson, MD) to prepare bacterial suspension having turbidity 1 (bacterial concentration 10^8/mL). Previously, small test tubes were set into each cell of a grating and sterilized, and 1 mL of 13 bacterial suspensions were added into the small test tubes set in the grating, respectively. By using a microplanter (SAKUMA, model: MIT-P), 10 μL aliquot was collected from each test tube set in the grating and transferred to other test tube, and the transferred bacterial suspensions were diluted 100-fold (bacterial concentration 10^6/mL).
(§5) By using the microplanter, 10 μL (bacterial number […]) of this bacterial suspension was inoculated onto the plates containing the sample solution of various concentrations. The plates were incubated for 18 hours in an incubator at 37° C., and then a microbicidal activity of each compound was assessed.

Salmonella sp. = tested on: Salmonella sp. On Growth on agar plate: key: +: grew; −: did not grow.
Description: as §1, §2, §3, §4, §5

Streptococcus pyogenes = tested on: Streptococcus pyogenes; on Growth on agar plate: key: +: grew; −: did not grow
Description: as §1, §2, §3, §4, §5

Escherichia coli = tested on: Escherichia coli; on Growth on agar plate: key: +: grew; −: did not grow
Description: as §1, §2, §3, §4, §5

Yersinia enterocolitica = tested on: Yersinia enterocolitica; on Growth on agar plate: key: +: grew; −: did not grow
Description: as §1, §2, §3, §4, §5

Streptococcus pneumoniae = tested on: Streptococcus pneumoniae; on Growth on agar plate: key: +: grew; −: did not grow
Description: as §1, §2, §3, §4, §5

[1] = tested on: Bacillus subtilis ATCC6633; on Growth on agar plate: key: +: grew; −: did not grow
Description: as §1, §2, §3, §4, §5

Vibrio parahaemolyticus = tested on: Vibrio parahaemolyticus; on Growth on agar plate: key: +: grew; −: did not grow
Description: as §1, §2, §3, §4, §5

Bacillus subtilis MB-32 = tested on: Bacillus subtilis MB-32; on Growth on agar plate: key: +: grew; −: did not grow
Description: as §1, §2, §3, §4, §5

Candida sp. = tested on: Candida sp. On Growth on agar plate: key: +: grew; −: did not grow.
Description: as §1, §2, §3, §4, §5

Enterococcus faecalis = tested on: Enterococcus faecalis; further: key: +: grew; −: did not grow
Description: as §1, §2, §3, §4, §5

Bacillus cereus = tested on: Bacillus cereus; on Growth on agar plate: key: +: grew; −: did not grow
Description: as §1, §2, §3, §4, §5

Staphylococcus aureus = tested on: Staphylococcus aureus; on Growth on agar plate: key: +: grew; −: did not grow
Description: as §1, §2, §3, §4, §5

[2] = BHI agar, 37° C., 18 hours, read-out: MIC

In the case of O=Cc1ccc(O)cc1 [p-Hydroxybenzaldehyde, p-hydroxybenzaldehyde], the “activity (in words)” value (Pseudomonas aeruginosa) is reported as “had an activity”, the “Growth on agar plate” value (Pseudomonas aeruginosa; 0.25 mg/mL) is reported as “+” and the “Growth on agar plate” value (Pseudomonas aeruginosa; 0.5 mg/mL) is reported as “+”. For the same compound, the “Growth on agar plate” value (Pseudomonas aeruginosa; 1.0 mg/mL) was “+”, the “Growth on agar plate” value (Pseudomonas aeruginosa; 2.0 mg/mL) was “−” and the “Growth on agar plate” value (Pseudomonas aeruginosa; 3.0 mg/mL) was “−”. For the same compound, the “Growth on agar plate” value (Pseudomonas aeruginosa; 4.0 mg/mL) was “−”, the MIC (Pseudomonas aeruginosa; [2]) was 2000 µg/mL (≈ 16.4 mM) and the “activity (in words)” value (Salmonella sp.) was “had an activity”. The “Growth on agar plate” value (Salmonella sp.; 0.25 mg/mL) was “+”, the “Growth on agar plate” value (Salmonella sp.; 0.5 mg/mL) was “+” and the “Growth on agar plate” value (Salmonella sp.; 1.0 mg/mL) was “+”. For the same compound, the “Growth on agar plate” value (Salmonella sp.; 2.0 mg/mL) was “−”, the “Growth on agar plate” value (Salmonella sp.; 3.0 mg/mL) was “−” and the “Growth on agar plate” value (Salmonella sp.; 4.0 mg/mL) was “−”. The MIC (Salmonella sp.; [2]) was 2000 µg/mL (≈ 16.4 mM), the “activity (in words)” value (Streptococcus pyogenes) was “had an activity” and the “Growth on agar plate” value (Streptococcus pyogenes; 0.25 mg/mL) was “+”. The “Growth on agar plate” value (Streptococcus pyogenes; 0.5 mg/mL) was “+”, the “Growth on agar plate” value (Streptococcus pyogenes; 1.0 mg/mL) was “+” and the “Growth on agar plate” value (Streptococcus pyogenes; 2.0 mg/mL) was “−”. For the same compound, the “Growth on agar plate” value (Streptococcus pyogenes; 3.0 mg/mL) was “−”, the “Growth on agar plate” value (Streptococcus pyogenes; 4.0 mg/mL) was “−” and the MIC (Streptococcus pyogenes; [2]) was 2000 µg/mL (≈ 16.4 mM). For the same compound, the “activity (in words)” value (Escherichia coli) was “had an activity”, the “Growth on agar plate” value (Escherichia coli; 0.25 mg/mL) was “+” and the “Growth on agar plate” value (Escherichia coli; 0.5 mg/mL) was “+”. For the same compound, the “Growth on agar plate” value (Escherichia coli; 1.0 mg/mL) was “+”, the “Growth on agar plate” value (Escherichia coli; 2.0 mg/mL) was “−” and the “Growth on agar plate” value (Escherichia coli; 3.0 mg/mL) was “−”. The “Growth on agar plate” value (Escherichia coli; 4.0 mg/mL) was “−”, the MIC (Escherichia coli; [2]) was 2000 µg/mL (≈ 16.4 mM) and the “activity (in words)” value (Yersinia enterocolitica) was “strong microbicidal activity”. For the same compound, the “Growth on agar plate” value (Yersinia enterocolitica; 0.25 mg/mL) was “+”, the “Growth on agar plate” value (Yersinia enterocolitica; 0.5 mg/mL) was “−” and the “Growth on agar plate” value (Yersinia enterocolitica; 1.0 mg/mL) was “−”. The “Growth on agar plate” value (Yersinia enterocolitica; 2.0 mg/mL) was “−”, the “Growth on agar plate” value (Yersinia enterocolitica; 3.0 mg/mL) was “−” and the “Growth on agar plate” value (Yersinia enterocolitica; 4.0 mg/mL) was “−”. For the same compound, the MIC (Yersinia enterocolitica; [2]) was 500 µg/mL (≈ 4.09 mM), the “activity (in words)” value (Streptococcus pneumoniae) was “had an activity” and the “Growth on agar plate” value (Streptococcus pneumoniae; 0.25 mg/mL) was “+”. For the same compound, the “Growth on agar plate” value (Streptococcus pneumoniae; 0.5 mg/mL) was “+”, the “Growth on agar plate” value (Streptococcus pneumoniae; 1.0 mg/mL) was “+” and the “Growth on agar plate” value (Streptococcus pneumoniae; 2.0 mg/mL) was “−”. For the same compound, the “Growth on agar plate” value (Streptococcus pneumoniae; 3.0 mg/mL) was “−”, the “Growth on agar plate” value (Streptococcus pneumoniae; 4.0 mg/mL) was “−” and the MIC (Streptococcus pneumoniae; [2]) was 2000 µg/mL (≈ 16.4 mM). For the same compound, the MIC ([1]; ATCC6633, Bacillus subtilis ATCC 6633, BHI agar, 37° C., 18 hours, read-out: MIC) was 3000 µg/mL (≈ 24.6 mM), the “activity (in words)” value ([1]; Bacillus subtilis ATCC6633) was “had an activity” and the “Growth on agar plate” value ([1]; Bacillus subtilis ATCC 6633, 0.25 mg/mL) was “+”. For the same compound, the “Growth on agar plate” value ([1]; Bacillus subtilis ATCC 6633, 0.5 mg/mL) was “+”, the “Growth on agar plate” value ([1]; Bacillus subtilis ATCC 6633, 1.0 mg/mL) was “+” and the “Growth on agar plate” value ([1]; Bacillus subtilis ATCC 6633, 2.0 mg/mL) was “+”. For the same compound, the “Growth on agar plate” value ([1]; Bacillus subtilis ATCC 6633, 3.0 mg/mL) was “−”, the “Growth on agar plate” value ([1]; Bacillus subtilis ATCC 6633, 4.0 mg/mL) was “−” and the “activity (in words)” value (Vibrio parahaemolyticus) was “had an activity”. The “Growth on agar plate” value (Vibrio parahaemolyticus; 0.25 mg/mL) was “+”, the “Growth on agar plate” value (Vibrio parahaemolyticus; 0.5 mg/mL) was “+” and the “Growth on agar plate” value (Vibrio parahaemolyticus; 1.0 mg/mL) was “+”. The “Growth on agar plate” value (Vibrio parahaemolyticus; 2.0 mg/mL) was “−”, the “Growth on agar plate” value (Vibrio parahaemolyticus; 3.0 mg/mL) was “−” and the “Growth on agar plate” value (Vibrio parahaemolyticus; 4.0 mg/mL) was “−”. For the same compound, the MIC (Vibrio parahaemolyticus; [2]) was 2000 µg/mL (≈ 16.4 mM), the “activity (in words)” value (Bacillus subtilis MB-32) was “had an activity” and the “Growth on agar plate” value (Bacillus subtilis MB-32; 0.25 mg/mL) was “+”. The “Growth on agar plate” value (Bacillus subtilis MB-32; 0.5 mg/mL) was “+”, the “Growth on agar plate” value (Bacillus subtilis MB-32; 1.0 mg/mL) was “+” and the “Growth on agar plate” value (Bacillus subtilis MB-32; 2.0 mg/mL) was “+”. The “Growth on agar plate” value (Bacillus subtilis MB-32; 3.0 mg/mL) was “+”, the “Growth on agar plate” value (Bacillus subtilis MB-32; 4.0 mg/mL) was “−” and the MIC (Bacillus subtilis MB-32; MB32, BHI agar, 37° C., 18 hours, read-out: MIC) was 3000 µg/mL (≈ 24.6 mM). For the same compound, the “activity (in words)” value (Candida sp.) was “had an activity”, the “Growth on agar plate” value (Candida sp.; 0.25 mg/mL) was “+” and the “Growth on agar plate” value (Candida sp.; 0.5 mg/mL) was “+”. For the same compound, the “Growth on agar plate” value (Candida sp.; 1.0 mg/mL) was “+”, the “Growth on agar plate” value (Candida sp.; 2.0 mg/mL) was “+” and the “Growth on agar plate” value (Candida sp.; 3.0 mg/mL) was “−”. For the same compound, the “Growth on agar plate” value (Candida sp.; 4.0 mg/mL) was “−”, the MIC (Candida sp.; [2]) was 3000 µg/mL (≈ 24.6 mM) and the “Growth on agar plate” value (Enterococcus faecalis; 0.25 mg/mL) was “+”. The “Growth on agar plate” value (Enterococcus faecalis; 0.5 mg/mL) was “+”, the “Growth on agar plate” value (Enterococcus faecalis; 1.0 mg/mL) was “+” and the “Growth on agar plate” value (Enterococcus faecalis; 2.0 mg/mL) was “+”. The “Growth on agar plate” value (Enterococcus faecalis; 3.0 mg/mL) was “+”, the “Growth on agar plate” value (Enterococcus faecalis; 4.0 mg/mL) was “+” and the “activity (in words)” value (Bacillus cereus) was “had an activity”. The “Growth on agar plate” value (Bacillus cereus; 0.25 mg/mL) was “+”, the “Growth on agar plate” value (Bacillus cereus; 0.5 mg/mL) was “+” and the “Growth on agar plate” value (Bacillus cereus; 1.0 mg/mL) was “+”. For the same compound, the “Growth on agar plate” value (Bacillus cereus; 2.0 mg/mL) was “+”, the “Growth on agar plate” value (Bacillus cereus; 3.0 mg/mL) was “−” and the “Growth on agar plate” value (Bacillus cereus; 4.0 mg/mL) was “−”. For the same compound, the MIC (Bacillus cereus; [2]) was 3000 µg/mL (≈ 24.6 mM), the “activity (in words)” value (Staphylococcus aureus) was “had an activity” and the “Growth on agar plate” value (Staphylococcus aureus; 0.25 mg/mL) was “+”. For the same compound, the “Growth on agar plate” value (Staphylococcus aureus; 0.5 mg/mL) was “+”, the “Growth on agar plate” value (Staphylococcus aureus; 1.0 mg/mL) was “+” and the “Growth on agar plate” value (Staphylococcus aureus; 2.0 mg/mL) was “+”. For the same compound, the “Growth on agar plate” value (Staphylococcus aureus; 3.0 mg/mL) was “−”, the “Growth on agar plate” value (Staphylococcus aureus; 4.0 mg/mL) was “−” and the MIC (Staphylococcus aureus; [2]) was 3000 µg/mL (≈ 24.6 mM).
